Test results: ChEMBL document CHEMBL1955809, “Discovery of GS-9256: a novel phosphinic acid derived inhibitor of the hepatitis C virus NS3/4A protease with potent clinical activity” (Bioorg Med Chem Lett, 2012)
The source made the active and inactive calls. The calls are words filed in the database; no cut-off is given here.

Tests used:
Hepatitis C virus [1] = test: Inhibition of HCV1b NS3/4A protease; parameters: species or system Hepatitis C virus subtype 1b; conditions: for IC50: Hepatitis C virus
Hepatitis C virus [2] = test: Antiviral activity against HCV genotype 1b infected in human Huh cells expressing luc gene by replicon assay; assay type: functional, organism-based, Hepacivirus hominis
[3] = Permeability from apical to basolateral side in human Caco2 cells; assay type: ADME, cell-based; conditions: Caco-2, read-out: permeability
[4] = Permeability from basolateral to apical side in human Caco2 cells; assay type: ADME, cell-based; conditions: Caco-2, read-out: permeability
[5] = Selectivity ratio of IC50 human protease 3 to IC50 for HCV 1b NS3/4A protease
[6] = Drug excretion in iv dosed bile-cannulated rat bile assessed as parent compound level after 4 hrs; assay type: ADME, organism-based; conditions: read-out: Ae
[7] = Oral bioavailability in dog at 4 mg/kg; assay type: ADME, organism-based, Canis lupus familiaris; conditions: in vivo
[8] = Selectivity ratio of IC50 for cathepsin D to IC50 for HCV1b NS3/4A protease
[9] = Selectivity ratio of IC50 for cathepsin L to IC50 for HCV1b NS3/4A protease
[10] = Selectivity ratio of IC50 for human leukocyte protease to IC50 for HCV1b NS3/4A protease
[11] = Selectivity ratio of IC50 for porcine pancreatic elastase to IC50 for HCV1b NS3/4A protease
[12] = Inhibition of CYP450; assay type: ADME
[13] = biological target: Voltage-gated inwardly rectifying potassium channel KCNH2 (Homo sapiens, UniProt Q12809); test: Inhibition of human ERG up to 25 uM
[14] = Inhibition of P-glycoprotein
Bile salt export pump = Bile salt export pump (Homo sapiens, UniProt O95342); test: Inhibition of BSEP
[15] = biological target: T1, Solute carrier family 22 member 6 (Homo sapiens, UniProt Q4U2R8); test: Activity at OAT1
T1 sequence (Q4U2R8 whole entry): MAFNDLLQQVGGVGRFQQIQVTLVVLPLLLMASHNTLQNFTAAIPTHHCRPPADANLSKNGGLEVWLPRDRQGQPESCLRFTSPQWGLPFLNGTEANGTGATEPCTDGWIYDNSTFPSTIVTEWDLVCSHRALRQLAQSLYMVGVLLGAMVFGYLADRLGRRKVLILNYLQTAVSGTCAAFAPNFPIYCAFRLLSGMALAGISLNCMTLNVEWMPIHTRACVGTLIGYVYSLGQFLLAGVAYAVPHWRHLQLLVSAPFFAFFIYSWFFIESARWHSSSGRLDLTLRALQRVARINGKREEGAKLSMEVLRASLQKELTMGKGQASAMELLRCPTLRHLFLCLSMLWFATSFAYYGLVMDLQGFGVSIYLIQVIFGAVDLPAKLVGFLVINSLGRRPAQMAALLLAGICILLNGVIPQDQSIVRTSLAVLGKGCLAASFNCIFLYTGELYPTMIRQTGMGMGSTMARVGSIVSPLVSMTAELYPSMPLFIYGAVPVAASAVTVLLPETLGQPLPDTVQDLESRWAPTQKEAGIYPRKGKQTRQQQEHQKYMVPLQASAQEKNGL

[16] = biological target: T2, Solute carrier family 22 member 7 (Homo sapiens, UniProt Q9Y694); test: Activity at OAT2
T2 sequence (Q9Y694 whole entry): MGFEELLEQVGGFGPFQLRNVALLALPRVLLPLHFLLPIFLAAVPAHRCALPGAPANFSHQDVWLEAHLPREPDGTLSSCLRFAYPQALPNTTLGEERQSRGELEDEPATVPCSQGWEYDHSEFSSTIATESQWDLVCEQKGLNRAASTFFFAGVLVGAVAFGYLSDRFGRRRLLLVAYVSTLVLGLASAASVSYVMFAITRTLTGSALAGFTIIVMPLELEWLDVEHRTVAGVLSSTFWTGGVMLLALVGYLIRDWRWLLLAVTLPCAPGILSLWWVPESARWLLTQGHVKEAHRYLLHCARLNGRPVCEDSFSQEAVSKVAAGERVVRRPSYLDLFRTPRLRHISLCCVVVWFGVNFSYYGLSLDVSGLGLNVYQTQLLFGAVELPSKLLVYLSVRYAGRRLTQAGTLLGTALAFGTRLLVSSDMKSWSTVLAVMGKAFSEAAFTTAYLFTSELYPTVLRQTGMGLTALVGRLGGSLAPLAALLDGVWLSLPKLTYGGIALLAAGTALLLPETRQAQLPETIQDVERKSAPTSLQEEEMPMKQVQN

[17] = Half life in human; assay type: ADME, organism-based; conditions: in vivo
Hepatitis C virus [18] = test: Antiviral activity against HCV genotype 1 infected in human at 150 mg, po; assay type: functional, Hepacivirus hominis
Hepatitis C virus [19] = test: Antiviral activity against HCV genotype 1 infected in human at 300 mg, po; assay type: functional, Hepacivirus hominis
Hepatitis C virus [20] = test: Antiviral activity against HCV genotype 1 infected in human at 450 mg, po; assay type: functional, Hepacivirus hominis
[21] = Clearance in dog; assay type: ADME, organism-based, Canis lupus familiaris; conditions: in vivo

Sequence of Bile salt export pump (O95342 whole entry): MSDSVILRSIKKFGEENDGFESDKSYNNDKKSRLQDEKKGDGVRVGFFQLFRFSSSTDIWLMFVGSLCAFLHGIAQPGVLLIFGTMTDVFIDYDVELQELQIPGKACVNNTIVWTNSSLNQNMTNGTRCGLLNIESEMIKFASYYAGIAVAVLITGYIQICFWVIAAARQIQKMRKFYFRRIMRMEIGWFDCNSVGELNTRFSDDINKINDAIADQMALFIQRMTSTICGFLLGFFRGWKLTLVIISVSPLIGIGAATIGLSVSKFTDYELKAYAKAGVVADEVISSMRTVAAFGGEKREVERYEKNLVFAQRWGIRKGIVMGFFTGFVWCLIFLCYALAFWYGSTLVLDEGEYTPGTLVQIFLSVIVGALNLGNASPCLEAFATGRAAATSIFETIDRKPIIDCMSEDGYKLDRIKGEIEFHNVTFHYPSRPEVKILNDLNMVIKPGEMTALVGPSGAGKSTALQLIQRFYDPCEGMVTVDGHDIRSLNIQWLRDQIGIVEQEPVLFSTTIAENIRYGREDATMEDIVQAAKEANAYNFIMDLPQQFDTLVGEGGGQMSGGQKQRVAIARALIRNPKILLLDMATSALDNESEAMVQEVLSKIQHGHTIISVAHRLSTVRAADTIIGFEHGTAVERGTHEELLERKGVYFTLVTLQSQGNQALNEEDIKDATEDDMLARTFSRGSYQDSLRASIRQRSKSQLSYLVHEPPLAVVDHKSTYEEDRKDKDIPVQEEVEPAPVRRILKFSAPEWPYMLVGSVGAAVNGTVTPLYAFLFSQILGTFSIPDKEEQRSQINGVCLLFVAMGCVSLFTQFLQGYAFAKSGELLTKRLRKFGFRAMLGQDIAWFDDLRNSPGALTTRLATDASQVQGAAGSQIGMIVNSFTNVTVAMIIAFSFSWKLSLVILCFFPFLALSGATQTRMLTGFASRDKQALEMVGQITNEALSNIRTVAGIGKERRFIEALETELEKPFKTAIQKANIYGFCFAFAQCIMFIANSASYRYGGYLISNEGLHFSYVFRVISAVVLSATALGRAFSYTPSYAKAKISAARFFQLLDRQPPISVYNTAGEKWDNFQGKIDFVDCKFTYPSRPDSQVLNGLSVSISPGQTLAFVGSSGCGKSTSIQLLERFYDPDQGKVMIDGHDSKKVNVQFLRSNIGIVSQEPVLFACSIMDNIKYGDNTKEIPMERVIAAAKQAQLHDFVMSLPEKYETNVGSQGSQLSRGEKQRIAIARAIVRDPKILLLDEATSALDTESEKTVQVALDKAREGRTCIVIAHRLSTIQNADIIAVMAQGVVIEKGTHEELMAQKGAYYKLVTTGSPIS
Sequence of Voltage-gated inwardly rectifying potassium channel KCNH2 (Q12809 whole entry): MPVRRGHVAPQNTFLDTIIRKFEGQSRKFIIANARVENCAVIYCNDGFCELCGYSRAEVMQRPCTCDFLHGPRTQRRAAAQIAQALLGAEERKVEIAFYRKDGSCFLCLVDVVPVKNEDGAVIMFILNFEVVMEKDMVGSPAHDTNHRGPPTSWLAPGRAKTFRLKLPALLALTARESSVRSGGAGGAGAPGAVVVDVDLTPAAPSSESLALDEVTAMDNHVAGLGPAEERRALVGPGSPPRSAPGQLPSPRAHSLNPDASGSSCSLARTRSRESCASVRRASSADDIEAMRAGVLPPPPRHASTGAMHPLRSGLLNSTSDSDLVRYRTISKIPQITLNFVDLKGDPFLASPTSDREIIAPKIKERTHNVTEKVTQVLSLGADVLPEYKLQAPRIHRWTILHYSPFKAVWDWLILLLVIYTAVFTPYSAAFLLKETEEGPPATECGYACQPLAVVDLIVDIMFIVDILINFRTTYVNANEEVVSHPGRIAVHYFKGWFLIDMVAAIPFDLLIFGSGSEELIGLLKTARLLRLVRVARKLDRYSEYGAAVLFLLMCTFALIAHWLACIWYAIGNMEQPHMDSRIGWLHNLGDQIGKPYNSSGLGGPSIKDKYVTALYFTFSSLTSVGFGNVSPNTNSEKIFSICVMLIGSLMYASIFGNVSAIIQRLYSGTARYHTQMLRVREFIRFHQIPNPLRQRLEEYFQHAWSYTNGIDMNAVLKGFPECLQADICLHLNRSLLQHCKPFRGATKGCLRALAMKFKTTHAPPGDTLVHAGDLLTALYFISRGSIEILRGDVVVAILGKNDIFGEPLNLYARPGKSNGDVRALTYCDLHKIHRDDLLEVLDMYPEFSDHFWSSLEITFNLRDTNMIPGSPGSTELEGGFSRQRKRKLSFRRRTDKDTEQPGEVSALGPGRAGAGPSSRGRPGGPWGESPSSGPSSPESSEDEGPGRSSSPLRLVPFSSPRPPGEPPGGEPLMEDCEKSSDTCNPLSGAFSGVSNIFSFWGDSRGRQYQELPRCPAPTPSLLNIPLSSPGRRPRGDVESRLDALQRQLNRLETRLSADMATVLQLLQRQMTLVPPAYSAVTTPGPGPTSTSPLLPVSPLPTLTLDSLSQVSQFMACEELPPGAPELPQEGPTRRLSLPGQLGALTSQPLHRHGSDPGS

SMILES	IC50 (Hepatitis C virus [1])	EC50 (Hepatitis C virus [2])	Papp A→B [3]	Papp B→A [4]	further results
C=C[C@@H]1C[C@]1(NC(=O)[C@@H]1C[C@@H](Oc2cc(-c3csc(NC(C)C)n3)nc3cc(OC)ccc23)CN1C(=O)[C@@H](NC(=O)OC1CCCC1)C(C)(C)C)P(=O)(O)Cc1ccc(F)cc1	7 nM	284 nM	0.84 ×10⁻⁶ cm/s	4.38 ×10⁻⁶ cm/s	
C=C[C@@H]1C[C@]1(NC(=O)[C@@H]1C[C@@H](Oc2cc(-c3csc(NC(C)C)n3)nc3cc(OC)ccc23)CN1C(=O)[C@@H](NC(=O)OC1CCCC1)C(C)(C)C)P(=O)(O)Cc1ccc(OC)cc1	10 nM	460 nM	0.71 ×10⁻⁶ cm/s	5.83 ×10⁻⁶ cm/s	
COc1ccc2c(O[C@@H]3C[C@H]4C(=O)N[C@]5(P(=O)(O)Cc6c(F)cccc6F)C[C@H]5CCCCCCC[C@H](NC(=O)OC5CCCC5)C(=O)N4C3)cc(-c3csc(NC(C)C)n3)nc2c1Cl [GS-9256]	4 nM	20 nM			Ki (Hepatitis C virus [1]): 0.089 nM; Ratio IC50 [5]: 6600; dose excreted at 4 h [6]: 95%; bioavailability [7]: 21%; Ratio IC50 [8]: 5300; Ratio IC50 [9]: 5400; Ratio IC50 [10]: 987; Ratio IC50 [11]: 28600; inhibition (INH) [12]: Not Active; inhibition (INH) [13]: Not Active; inhibition [14]: Active; inhibition (INH) (Bile salt export pump): Active; Activity [15]: Active; Activity [16]: Active; half-life [17]: 7 h; Activity (Hepatitis C virus [18]): -1.8 log10IU/ml; Activity (Hepatitis C virus [19]): -2.4 log10IU/ml; Activity (Hepatitis C virus [20]): -2.8 log10IU/ml
C=C[C@@H]1C[C@]1(NC(=O)[C@@H]1C[C@@H](Oc2cc(-c3csc(NC(C)C)n3)nc3cc(OC)ccc23)CN1C(=O)[C@@H](NC(=O)OC1CCCC1)C(C)(C)C)P(=O)(O)Cc1ccccc1F	4 nM	170 nM	0.53 ×10⁻⁶ cm/s	2.74 ×10⁻⁶ cm/s	
C=C[C@@H]1C[C@]1(NC(=O)[C@@H]1C[C@@H](Oc2cc(-c3csc(NC(C)C)n3)nc3cc(OC)ccc23)CN1C(=O)[C@@H](NC(=O)OC1CCCC1)C(C)(C)C)P(=O)(O)Cc1cccc(OC)c1	7 nM	540 nM	0.39 ×10⁻⁶ cm/s	8.28 ×10⁻⁶ cm/s	
COc1ccc2c(O[C@@H]3C[C@H]4C(=O)N[C@]5(P(=O)(O)Cc6ccccc6)C[C@H]5CCCCCCC[C@H](NC(=O)OC5CCCC5)C(=O)N4C3)cc(-c3csc(NC(C)C)n3)nc2c1	6 nM	5 nM			clearance [21]: 6 mL/min/kg
C=C[C@@H]1C[C@]1(NC(=O)[C@@H]1C[C@@H](Oc2cc(-c3csc(NC(C)C)n3)nc3cc(OC)ccc23)CN1C(=O)[C@@H](NC(=O)OC1CCCC1)C(C)(C)C)P(=O)(O)Cc1c(F)cccc1Cl	6 nM	120 nM	0.89 ×10⁻⁶ cm/s	5.87 ×10⁻⁶ cm/s	
C=C[C@@H]1C[C@]1(NC(=O)[C@@H]1C[C@@H](Oc2cc(-c3csc(NC(C)C)n3)nc3cc(OC)ccc23)CN1C(=O)[C@@H](NC(=O)OC1CCCC1)C(C)(C)C)P(=O)(O)Cc1cccc(F)c1	8 nM	239 nM	0.34 ×10⁻⁶ cm/s	1.8 ×10⁻⁶ cm/s	
C=C[C@@H]1C[C@]1(NC(=O)[C@@H]1C[C@@H](Oc2cc(-c3csc(NC(C)C)n3)nc3cc(OC)ccc23)CN1C(=O)[C@@H](NC(=O)OC1CCCC1)C(C)(C)C)P(=O)(O)Cc1ccccc1	7 nM	170 nM	0.7 ×10⁻⁶ cm/s	6.1 ×10⁻⁶ cm/s	
C=C[C@@H]1C[C@]1(NC(=O)[C@@H]1C[C@@H](Oc2cc(-c3csc(NC(C)C)n3)nc3cc(OC)ccc23)CN1C(=O)[C@@H](NC(=O)OC1CCCC1)C(C)(C)C)P(=O)(O)Cc1ccccc1C	8 nM	146 nM	0.69 ×10⁻⁶ cm/s	3.9 ×10⁻⁶ cm/s	
